Laboratory results reported in paper PMC10374108, “Structural and biochemical characterization of the key components of an auxin degradation operon from the rhizosphere bacterium Variovorax” (PLOS Biology, 2023).
Values joined by “and” are separate entries in the source; they are usually repeats but may differ in a detail not shown here. Equal entries are not always repeated. Where two headings read alike, the source gives them in different places.

Columns and labels:
IadK2 = IadK2 (Variovorax paradoxus, UniProt T1X8R6); test: ITC, auxins binding to IadK2
Experimental: (§1) ITC experiments were performed using a MicroCal PEAQ-ITC system (Malvern). All the experiments were performed at […] in a buffer containing 25 mM Tris-HCl (pH 7.5) and 150 mM NaCl (unless otherwise stated). […] Data was analyzed using the MicroCal PEAQ-ITC analysis software. All the measurements were repeated at least 2 times.

[1] = system: IadD/E-IadC dioxygenase system; test: In vitro IAA and analogs transformation assay, IadC + IadD/E; assay type: biochemical, Variovorax paradoxus CL14; settings: normalised, replicates
Experimental: The reaction mixture was composed of 100 mM Tris-HCl (pH7.5), 250 μM reduced NADH, 10 μM ammonium iron (II) sulfate, and 3 μM of each enzyme component. […] The mixture was vortexed periodically to introduce oxygen for the reaction and was boiled to stop the reaction. After pelleting the precipitants, the supernatant was collected and mixed with 2 volumes of Salkowski reagent made of 0.5 M ferric chloride and 35% perchloric acid for the quantification of residual substrate by measuring the adsorption at 530 nm.

IadK3 = IadK3 (Variovorax paradoxus, UniProt A0A0H2LZ84); test: ITC, auxins binding to IadK3; design: species or system Variovorax paradoxus CL14
Experimental: as §1

[2] = molecular target: IadD (Variovorax paradoxus CL14); test: cryo-EM structure; purified IadD/E complex with 20-fold molar excess of IAA, 2.6 Å (2.59 Å), C3 symmetry
[3] = molecular target: IadE (Variovorax paradoxus CL14); test: SEC; co-expressed IadD/E complex purified by cation exchange, 20 mg/ml, HiLoad 200 column, 25 mM Tris-HCl pH 7.5, 150 mM NaCl, 2 mM DTT; peak fractions on SDS-PAGE
[4] = molecular target: IadE (Variovorax paradoxus CL14); test: cryo-EM structure; purified IadD/E complex with 20-fold molar excess of IAA, 2.6 Å (2.59 Å), C3 symmetry
[5] = ITC, single-phase isotherm, auxin analogs to IadK2, mean ± SEM, read-out: KD
[6] = IadK2, ITC, replicates, read-out: Kd

Sequence of IadK3 (A0A0H2LZ84 entry or part of it): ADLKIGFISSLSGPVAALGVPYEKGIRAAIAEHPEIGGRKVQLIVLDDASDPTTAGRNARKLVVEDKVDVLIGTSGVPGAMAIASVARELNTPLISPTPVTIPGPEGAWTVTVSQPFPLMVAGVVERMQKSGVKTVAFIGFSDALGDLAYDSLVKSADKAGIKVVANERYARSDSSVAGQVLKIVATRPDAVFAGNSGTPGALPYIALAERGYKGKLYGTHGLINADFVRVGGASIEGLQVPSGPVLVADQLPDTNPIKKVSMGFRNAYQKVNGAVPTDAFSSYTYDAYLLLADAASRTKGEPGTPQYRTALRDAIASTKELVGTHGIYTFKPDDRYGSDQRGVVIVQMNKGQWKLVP
Sequence of IadK2 (T1X8R6 entry or part of it): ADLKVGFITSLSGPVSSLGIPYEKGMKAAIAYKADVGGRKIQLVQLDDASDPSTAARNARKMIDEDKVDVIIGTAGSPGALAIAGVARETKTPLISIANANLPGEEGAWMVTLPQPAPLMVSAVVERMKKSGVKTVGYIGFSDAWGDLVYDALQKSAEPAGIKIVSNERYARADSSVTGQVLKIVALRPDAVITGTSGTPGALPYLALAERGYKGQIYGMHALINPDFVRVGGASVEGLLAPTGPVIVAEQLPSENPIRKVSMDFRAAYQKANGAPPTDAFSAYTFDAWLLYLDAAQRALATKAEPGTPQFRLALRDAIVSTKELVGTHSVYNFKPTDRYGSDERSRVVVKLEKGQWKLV

Compound	Kd (IadK2; [5]) [µM]	Kd (IadK2; [6])	relative substrate level after reaction [1]	relative substrate level before reaction [1]	further results
O=C(O)COc1ccc(Cl)cc1Cl [2,4-D, 2,4-dichlorophenoxyacetic acid]	–	–	–	–	Kd (IadK2; ITC, single-phase isotherm, auxin analogs to IadK2, mean ± SEM): > 100 µM; Kd (IadK2; IadK2, ITC, replicates): > 100 µM
O=C(O)Cc1c[nH]c2ccc(O)cc12 [5-HIAA, 5-hydroxy indole-3-acetic acid]	–	–	0.2661 and 0.2238 and 0.1936	1 and 1.014 and 0.9931	–
O=C(O)CCCc1c[nH]c2ccccc12 [IBA, indole-3-butyric acid]	18 ± 7	28 µM and 11 µM and 16 µM	1.033 and 0.9962 and 0.976	1 and 1.003 and 0.9923	–
O=C(O)CCc1c[nH]c2ccccc12 [IPA, indole-3-propionic acid]	1.4 ± 0.2	1.6 µM and 1.2 µM and 1.5 µM	0.9755 and 1.034 and 0.9864	1 and 1.004 and 1.006	–
O=C(O)Cc1ccccc1 [PAA, phenylacetic acid]	–	–	–	–	binding to IadK2 (ITC) (IadK2; result in words): no binding; Kd (IadK3): > 100 µM; Kd (IadK3; read-out: ITC binding, IadK3, ITC, replicates): > 100 µM; binding to IadK3 (ITC) (IadK3; result in words): no binding detected
O=C(O)CC1C(=O)Nc2ccccc21 (centres unmarked) [oxIAA, 2-oxindole-3-acetic acid]	–	–	–	–	association with IadK3 (IadK3; result in words, method not stated): weakly associate
IadD (enzyme)	–	–	–	–	stoichiometry N [2]: 3; stoichiometry N (IadD:IadE molar ratio) [3]: 1
IadE (enzyme)	–	–	–	–	stoichiometry N [4]: 3

More lines, main results first:

Kd (IadK2; [5]) [µM]	Kd (IadK2; [6])	relative substrate level after reaction [1]	relative substrate level before reaction [1]	Compound	further results
15.2 ± 6.8	7 µM and 23.8 µM and 15 µM	0.2122 and 0.2346 and 0.1886	1 and 0.9732 and 0.9831	O=C(O)Cc1c[nH]c2cccc(Cl)c12 [4-Cl-IAA, 4-chloroindole-3-acetic acid]	–
17 ± 2.2	15 µM and 16 µM and 20 µM	–	–	O=C(O)Cc1cccc2ccccc12 [NAA, 1-naphthylacetic acid]	–
